Data from PubChem BioAssay AID1963436 (Molecular Pharmacology Branch, DTP, NCI, 2024).
Several values for one entry are separate records, joined by “and”; a condition that tells them apart may be missing. Equal values may be shown once.

Tested on: OVCAR-5 complex spheroid (HUVEC/MSC), viability % T/C
Experiment: Anticancer human tumor OVCAR-5 cell line growth inhibition [Asc];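 further: spheroids exposed to agents for 7 days before readout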;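 on viability, T/C: 100% = DMSO vehicle-treated wells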
Conditions: for viability, T/C: stronger effect = lower value
Protocol: Multicellular complex tumor spheroid response to apoptosis pathway targeting inhibitors Alrizomadlin, Pelcitoclax, and Dasminapant in combination with a variety of drugs and investigational agents in selected tumor cell lines
The MDM2 inhibitor alrizomadlin, the Bcl-2/Bcl-xL inhibitor pelcitoclax, and the IAPs inhibitor dasminapant were evaluated both individually and in combination with standard of care and investigational anticancer small molecules within a complex spheroid model of solid tumors. . Complex spheroids include a stromal component modeled by human endothelial cells (HUVEC) and fibroblasts modeled by human mesenchymal stem cells (MSCs). The concentration ranges selected for each drug and investigational agent were based upon clinically achievable concentrations if the clinical Cmax of the agent was known.
Compounds. The drugs and investigational agents: alrizomadlin (APG-115; NSC831270), pelcitoclax (APG-1252; NSC835773), dasminapant (APG-1387;NSC834197), TAK-243 (NSC785004), copanlisib (NSC809693), olaparib (NSC753686), talazoparib (NSC767125), cobimetinib (NSC 768068), eltanexor (KPT-8602, NSC 794443), abemaciclib (NSC 768073), sotorasib (NSC818433), adagrasib (NSC 831453), MRTX-1133 (NSC 836407), Iadademestat (ORY1001, NSC 806812), and RMC-4630 (NSC839698), were obtained from the NCI Developmental Therapeutics Program Chemical Repository. The FDA-approved anticancer drug set is available from the Developmental Therapeutics Program at https://dtp.cancer.gov/organization/dscb/obtaining/available plates.htm. […] The stock solutions were prepared in dimethyl sulfoxide (DMSO, Sigma-Aldrich, St. Louis, MO, cat. D2650) at 800-fold the tested concentration and stored at -70 degrees C prior to their use. All drugs and investigational agents were tested over a range starting from a high concentration at or near the clinical Cmax and decreasing in half-log increments. If the clinical Cmax for an agent had not been determined, the highest concentration tested was 10 microM.
The patient-derived cancer (PDC) cell lines include five colon adenocarcinomas: 186277-243-T-J2-PDC, 616215-338-R-J1-PDC, 439559-082-T-J2-PDC, 463943-066-T-J2-PDC, and 519858-162-T-J1-PDC; three pancreatic carcinomas: 323965-272-R-J2-PDC, 521955-158-R6-J3-PDC, and 521955-158-R2-J5-PDC; two uterine sarcomas: 327498-152-R-J2-PDC and 993429-296-R-J1-PDC; two rhabdomyosarcomas: 755483-174-R-J1-PDC and 772245-204-R-J1-PDC; two soft tissue sarcomas: 126254-015-R-J1-PDC and 494315-158-R-J1-PDC; two malignant fibrous histiocytomas: 317291-083-R-J1-PDC and 596521-263-R-J1-PDC; two breast carcinomas: 171881-019-R-J1-PDC and 885512-296-R-J2-PDC; and one ovarian carcinoma: 6556581-035-R-J-PDC were obtained from the NCI PDMR, (https://pdmr.cancer.gov). The established cell lines HSSY-2 synovial sarcoma (RRID:CVCL 8719), SYO-1 synovial sarcoma (RRID:CVCL_7146), MPNST malignant peripheral neural sheath tumor were obtained from the Sloan Kettering Institute. The following established cell lines were purchased from the American Type Culture Collection (ATCC, Manassas, VA), Sor the received from the NCI repository:, PANC-1 pancreatic carcinoma (CRL-1469, RRID:CVCL_0480), OVCAR-5 ovarian carcinoma (RRID:CVCL_1628), OVCAR-8 ovarian carcinoma (RRID:CVCL_1629), , MCF-7 breast carcinoma (CRL-12584, RRID:CVCL_0031), MDA-MB-231 breast carcinoma (CRL-12532, RRID:CVCL_0062), NCI-H1876 small cell lung carcinoma (CRL-5902, RRID:CVCL_1503), NCI-H510A small cell lung carcinoma (HTB-184, RRID:CVCL_1565), NCI-H1417 (CRL-5869, RRID:CVCL_1469), and NCI-H196 small cell lung carcinoma (CRL-5823, RRID:CVCL_1509). Dr. Peter Houghton (Greehey Children's Cancer Research Institute, University of Texas Health Science Center, San Antonio, TX) provided Rh-18 rhabdomyosarcoma (RRID:CVCL_1659). Pooled donor human umbilical vein endothelial cells (HUVEC, Lonza, cat. CC-2519) and human mesenchymal stem cells (hMSC, Lonza, cat. PT-2501) were purchased from Lonza (Walkersville, MD).
Cell Culture. […]

SMILES	viability, T/C (compound 0.0316 µM)	viability, T/C (compound 0.1 µM)	viability, T/C (compound 0.316 µM)	viability, T/C (compound 1 µM)	viability, T/C (compound 3.16 µM)	viability, T/C (compound 10 µM)	IC50 (curve of compound)	viability, T/C (compound 0.00949 µM)	viability, T/C (compound 0.03 µM)	viability, T/C (compound 0.0949 µM)	viability, T/C (compound 0.3 µM)	viability, T/C (compound 0.949 µM)	viability, T/C (compound 3 µM)	IC50 (compound alone, run of 09/27/2022)	viability, T/C (compound 0.00316 µM)	viability, T/C (compound 0.01 µM)	IC50 (compound alone, run of 10/03/2022)
C#Cc1c(F)ccc2cc(O)cc(-c3ncc4c(N5CC6CCC(C5)N6)nc(OCC56CCCN5CC(F)C6)nc4c3F)c12 (stereo unspecified)	114% and 104% and 101%	112% and 100% and 106%	92.9% and 93.9% and 84.2%	80.5% and 88.2% and 96.8%	78.7% and 72.7% and 75%	40.5% and 39.1% and 39.3%	7560 nM and 6900 nM and 7160 nM	–	–	–	–	–	–	–	–	–	–
C=C(F)C(=O)N1CCN(c2nc(OCC3CCCN3C)nc3c2CCN(c2cccc4cccc(Cl)c24)C3)CC1CC#N (stereo unspecified)	102% and 108% and 105%	100% and 107% and 97.9%	83.5% and 91.4% and 89.7%	54.5% and 60.8% and 67.8%	10.6% and 8.67% and 19.2%	0.23% and 0.22% and 0.3%	1050 nM and 1210 nM and 1490 nM	–	–	–	–	–	–	–	–	–	–
C=CC(=O)N1CCN(c2nc(=O)n(-c3c(C)ccnc3C(C)C)c3nc(-c4c(O)cccc4F)c(F)cc23)C(C)C1 (stereo unspecified)	98.8% and 111% and 105%	103% and 112% and 98%	110% and 116% and 104%	122% and 114% and 107%	120% and 115% and 111%	97% and 100% and 104%	> 10000 nM	–	–	–	–	–	–	–	–	–	–
CCN1C(C(=O)NC23CCC(C(=O)O)(CC2)CC3)C(c2cccc(Cl)c2F)C2(C(=O)Nc3cc(Cl)ccc32)C12CCCCC2 (stereo unspecified)	–	–	–	–	–	–	> 3000 nM	101% and 109%	97.1% [middle of 15 runs]	93.8% [middle of 15 runs]	95.7% [middle of 15 runs]	99.8% [middle of 15 runs]	103% [middle of 15 runs]	> 3000 nM	–	–	–
CCN1CCN(Cc2ccc(Nc3ncc(F)c(-c4cc(F)c5nc(C)n(C(C)C)c5c4)n3)nc2)CC1	70.1% and 70.8% and 77.2%	66.8% and 66.6% and 69.3%	71.2% and 64.5% and 68.4%	60.4% and 55.5% and 60.6%	–	–	> 1000 nM	–	–	–	–	–	–	–	96.2% and 105% and 97.1%	89% and 87.6% and 79.2%	–
CNC(C)C(=O)NC1CN(S(=O)(=O)c2cccc(S(=O)(=O)N3CCC4CCC(C(=O)NC(c5ccccc5)c5ccccc5)N4C(=O)C(NC(=O)C(C)NC)C3)c2)CCC2CCC(C(=O)NC(c3ccccc3)c3ccccc3)N2C1=O (stereo unspecified)	83.1% [middle of 15 runs]	80.8% [middle of 15 runs]	81.5% [middle of 15 runs]	80.3% [middle of 15 runs]	–	–	> 1000 nM	–	–	–	–	–	–	–	97.5% and 104%	95.1% [middle of 15 runs]	> 1000 nM
COc1c(OCCCN2CCOCC2)ccc2c3n(c(=NC(=O)c4cnc(N)nc4)nc12)CCN3	49.5% and 55% and 55.8%	26.1% and 29.9% and 42%	20.3% and 21.6% and 24.1%	9.88% and 9.15% and 11.8%	–	–	32.4 nM and 43.9 nM and 55.3 nM	–	–	–	–	–	–	–	85% and 93% and 92.1%	76.2% and 90.5% and 80.5%	–
